Where two headings read alike, the source gives them in different places.
Key:
Assay in all cases: Kinase inhibitory activity profiling of RI-962@10 µM (406 kinases, Eurofins)
Assay type in all cases: biochemical
[1] = target: panel of human kinases (kinase named in endpoint) (Homo sapiens, UniProt O15146); details: 10 µM; read-out: Activity (%), MuSK(h)
Outline: (§1)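 Radiometric filter-binding kinase assays: enzyme preincubated 15 min with compound in 8 mM MOPS pH 7.0, 0.2 mM EDTA, 250 μM peptide substrate, 10 mM magnesium acetate, 10 μM [γ-33P]-ATP. Reaction started with Mg/ATP, run 40 min at room temperature, stopped with phosphoric acid; 33P incorporation read by scintillation counting. Other kinases by similar protocols.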

[2] = target: panel of human kinases (kinase named in endpoint) (Homo sapiens, UniProt P49840); details: 10 µM; read-out: Activity (%), GSK3α(h)
Outline: as §1

[3] = target: panel of human kinases (kinase named in endpoint) (Homo sapiens, UniProt Q13873); details: 10 µM; read-out: Activity (%), BMPR2(h)
Outline: as §1

[4] = target: panel of human kinases (kinase named in endpoint) (Homo sapiens, UniProt O96017, I157T); details: 10 µM; read-out: Activity (%), CHK2(I157T)(h)
Outline: as §1

[5] = target: panel of human kinases (kinase named in endpoint) (Homo sapiens, UniProt P68400); details: 10 µM
Outline: as §1

[6] = target: panel of human kinases (kinase named in endpoint) (Homo sapiens, UniProt Q86V86); details: 10 µM; read-out: Activity (%), Pim-3(h)
Outline: as §1

[7] = target: panel of human kinases (kinase named in endpoint) (Homo sapiens, UniProt Q15119); details: 10 µM; read-out: Activity (%), PDHK2(h)
Outline: as §1

[8] = target: panel of human kinases (kinase named in endpoint) (Homo sapiens, UniProt P42680); details: 10 µM; read-out: Activity (%), Tec(h) activated
Outline: as §1

[9] = target: panel of human kinases (kinase named in endpoint) (Homo sapiens, UniProt P42338); details: 10 µM; read-out: Activity (%), PI3 Kinase (p110b/p85a)(h)
Outline: as §1

[10] = target: panel of human kinases (kinase named in endpoint) (Homo sapiens, UniProt P08922); details: 10 µM; read-out: Activity (%), Ros(h)
Outline: as §1

[11] = target: panel of human kinases (kinase named in endpoint) (Homo sapiens, UniProt Q8IY84); details: 10 µM; read-out: Activity (%), NIM1(h)
Outline: as §1

[12] = target: panel of human kinases (kinase named in endpoint) (Homo sapiens, UniProt Q12851); details: 10 µM; read-out: Activity (%), GCK(h)
Outline: as §1

[13] = target: panel of human kinases (kinase named in endpoint) (Homo sapiens, UniProt Q9H3Y6); details: 10 µM; read-out: Activity (%), SRMS(h)
Outline: as §1

[14] = target: panel of human kinases (kinase named in endpoint) (Homo sapiens, UniProt Q96PY6); details: 10 µM; read-out: Activity (%), NEK1(h)
Outline: as §1

[15] = target: panel of human kinases (kinase named in endpoint) (Homo sapiens, UniProt Q86Z02); details: 10 µM; read-out: Activity (%), HIPK1(h)
Outline: as §1

[16] = target: panel of human kinases (kinase named in endpoint) (Homo sapiens, UniProt O43293); details: 10 µM; read-out: Activity (%), ZIPK(h)
Outline: as §1

[17] = target: panel of human kinases (kinase named in endpoint) (Homo sapiens, UniProt O75676); details: 10 µM; read-out: Activity (%), MSK2(h)
Outline: as §1

[18] = target: panel of human kinases (kinase named in endpoint) (Homo sapiens, UniProt P07949, V804M); details: 10 µM; read-out: Activity (%), Ret(V804M)(h)
Outline: as §1

[19] = target: panel of human kinases (kinase named in endpoint) (Homo sapiens, UniProt P53667); details: 10 µM; read-out: Activity (%), LIMK1(h)
Outline: as §1

[20] = target: panel of human kinases (kinase named in endpoint) (Homo sapiens, UniProt P08581); details: 10 µM; read-out: Activity (%), Met(h)
Outline: as §1

[21] = target: panel of human kinases (kinase named in endpoint) (Homo sapiens, UniProt Q86Y07); details: 10 µM; read-out: Activity (%), VRK2(h)
Outline: as §1

[22] = target: panel of human kinases (kinase named in endpoint) (Homo sapiens, UniProt Q9Y2H1); details: 10 µM; read-out: Activity (%), NDR2(h)
Outline: as §1

[23] = target: panel of human kinases (kinase named in endpoint) (Homo sapiens, UniProt Q8N568); details: 10 µM; read-out: Activity (%), DCAMKL2(h)
Outline: as §1

[24] = target: panel of human kinases (kinase named in endpoint) (Homo sapiens, UniProt Q6SA08); details: 10 µM; read-out: Activity (%), TSSK4(h)
Outline: as §1

[25] = target: panel of human kinases (kinase named in endpoint) (Homo sapiens, UniProt Q14012); details: 10 µM; read-out: Activity (%), CaMKI(h)
Outline: as §1

Sequence of panel of human kinases (kinase named in endpoint) (Homo sapiens, UniProt P68400) (P68400 whole entry): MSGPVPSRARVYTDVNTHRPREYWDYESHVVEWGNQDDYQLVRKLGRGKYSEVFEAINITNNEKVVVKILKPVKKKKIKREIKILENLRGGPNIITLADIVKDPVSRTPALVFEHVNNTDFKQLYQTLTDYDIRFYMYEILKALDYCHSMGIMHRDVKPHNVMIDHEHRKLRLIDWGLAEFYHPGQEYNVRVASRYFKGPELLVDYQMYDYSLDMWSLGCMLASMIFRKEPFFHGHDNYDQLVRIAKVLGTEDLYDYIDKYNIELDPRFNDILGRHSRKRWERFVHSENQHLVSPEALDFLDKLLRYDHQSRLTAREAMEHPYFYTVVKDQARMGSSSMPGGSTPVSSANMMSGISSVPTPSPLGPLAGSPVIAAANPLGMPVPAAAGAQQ
Sequence of panel of human kinases (kinase named in endpoint) (Homo sapiens, UniProt Q12851) (Q12851 whole entry): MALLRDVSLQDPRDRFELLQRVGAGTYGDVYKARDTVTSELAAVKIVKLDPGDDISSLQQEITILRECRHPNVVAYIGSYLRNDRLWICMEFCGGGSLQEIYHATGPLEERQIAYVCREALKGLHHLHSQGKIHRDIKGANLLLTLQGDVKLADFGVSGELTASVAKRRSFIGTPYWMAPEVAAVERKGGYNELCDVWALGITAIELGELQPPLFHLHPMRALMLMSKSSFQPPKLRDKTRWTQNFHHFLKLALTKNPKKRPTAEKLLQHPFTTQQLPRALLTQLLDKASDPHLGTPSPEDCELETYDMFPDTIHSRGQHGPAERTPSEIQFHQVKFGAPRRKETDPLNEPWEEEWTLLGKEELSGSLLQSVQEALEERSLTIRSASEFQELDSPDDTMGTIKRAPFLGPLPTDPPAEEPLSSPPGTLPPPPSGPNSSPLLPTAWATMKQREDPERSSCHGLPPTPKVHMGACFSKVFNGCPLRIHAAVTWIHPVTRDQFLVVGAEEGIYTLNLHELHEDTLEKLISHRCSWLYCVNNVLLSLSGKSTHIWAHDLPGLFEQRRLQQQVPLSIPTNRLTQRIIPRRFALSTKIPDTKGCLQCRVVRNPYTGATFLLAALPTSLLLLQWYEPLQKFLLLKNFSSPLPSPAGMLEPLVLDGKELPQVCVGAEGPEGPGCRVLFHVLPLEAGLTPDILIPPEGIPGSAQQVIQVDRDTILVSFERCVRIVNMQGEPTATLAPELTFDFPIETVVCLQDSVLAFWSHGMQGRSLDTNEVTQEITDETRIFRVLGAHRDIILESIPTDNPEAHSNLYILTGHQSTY
Sequence of panel of human kinases (kinase named in endpoint) (Homo sapiens, UniProt Q13873) (Q13873 27-1038): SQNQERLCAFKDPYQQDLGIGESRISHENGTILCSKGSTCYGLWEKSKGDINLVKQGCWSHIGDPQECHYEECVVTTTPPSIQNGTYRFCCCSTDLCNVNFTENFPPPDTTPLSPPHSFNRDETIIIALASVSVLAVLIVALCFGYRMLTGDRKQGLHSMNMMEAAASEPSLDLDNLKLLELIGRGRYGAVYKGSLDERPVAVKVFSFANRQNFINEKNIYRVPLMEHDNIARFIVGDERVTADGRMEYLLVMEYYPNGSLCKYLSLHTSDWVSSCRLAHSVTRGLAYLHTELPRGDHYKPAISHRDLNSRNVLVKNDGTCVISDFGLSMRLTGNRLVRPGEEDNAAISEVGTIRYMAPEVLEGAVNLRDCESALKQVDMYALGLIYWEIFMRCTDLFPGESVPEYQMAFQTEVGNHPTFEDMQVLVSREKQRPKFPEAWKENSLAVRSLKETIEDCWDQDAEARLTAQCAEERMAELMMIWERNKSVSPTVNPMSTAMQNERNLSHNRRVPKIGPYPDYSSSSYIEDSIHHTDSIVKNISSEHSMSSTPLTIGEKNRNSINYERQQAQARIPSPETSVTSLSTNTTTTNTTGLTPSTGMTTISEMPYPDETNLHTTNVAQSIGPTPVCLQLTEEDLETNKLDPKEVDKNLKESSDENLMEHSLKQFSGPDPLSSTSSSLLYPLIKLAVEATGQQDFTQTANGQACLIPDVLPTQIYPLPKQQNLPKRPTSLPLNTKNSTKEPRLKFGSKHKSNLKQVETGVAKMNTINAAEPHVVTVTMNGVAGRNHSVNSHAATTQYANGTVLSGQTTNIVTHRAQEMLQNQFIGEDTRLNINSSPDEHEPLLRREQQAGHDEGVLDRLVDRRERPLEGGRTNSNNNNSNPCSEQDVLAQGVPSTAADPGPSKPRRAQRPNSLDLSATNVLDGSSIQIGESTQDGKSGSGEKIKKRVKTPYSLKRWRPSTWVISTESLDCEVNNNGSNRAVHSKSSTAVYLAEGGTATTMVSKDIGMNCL
Sequence of panel of human kinases (kinase named in endpoint) (Homo sapiens, UniProt P08581) (P08581 25-1390): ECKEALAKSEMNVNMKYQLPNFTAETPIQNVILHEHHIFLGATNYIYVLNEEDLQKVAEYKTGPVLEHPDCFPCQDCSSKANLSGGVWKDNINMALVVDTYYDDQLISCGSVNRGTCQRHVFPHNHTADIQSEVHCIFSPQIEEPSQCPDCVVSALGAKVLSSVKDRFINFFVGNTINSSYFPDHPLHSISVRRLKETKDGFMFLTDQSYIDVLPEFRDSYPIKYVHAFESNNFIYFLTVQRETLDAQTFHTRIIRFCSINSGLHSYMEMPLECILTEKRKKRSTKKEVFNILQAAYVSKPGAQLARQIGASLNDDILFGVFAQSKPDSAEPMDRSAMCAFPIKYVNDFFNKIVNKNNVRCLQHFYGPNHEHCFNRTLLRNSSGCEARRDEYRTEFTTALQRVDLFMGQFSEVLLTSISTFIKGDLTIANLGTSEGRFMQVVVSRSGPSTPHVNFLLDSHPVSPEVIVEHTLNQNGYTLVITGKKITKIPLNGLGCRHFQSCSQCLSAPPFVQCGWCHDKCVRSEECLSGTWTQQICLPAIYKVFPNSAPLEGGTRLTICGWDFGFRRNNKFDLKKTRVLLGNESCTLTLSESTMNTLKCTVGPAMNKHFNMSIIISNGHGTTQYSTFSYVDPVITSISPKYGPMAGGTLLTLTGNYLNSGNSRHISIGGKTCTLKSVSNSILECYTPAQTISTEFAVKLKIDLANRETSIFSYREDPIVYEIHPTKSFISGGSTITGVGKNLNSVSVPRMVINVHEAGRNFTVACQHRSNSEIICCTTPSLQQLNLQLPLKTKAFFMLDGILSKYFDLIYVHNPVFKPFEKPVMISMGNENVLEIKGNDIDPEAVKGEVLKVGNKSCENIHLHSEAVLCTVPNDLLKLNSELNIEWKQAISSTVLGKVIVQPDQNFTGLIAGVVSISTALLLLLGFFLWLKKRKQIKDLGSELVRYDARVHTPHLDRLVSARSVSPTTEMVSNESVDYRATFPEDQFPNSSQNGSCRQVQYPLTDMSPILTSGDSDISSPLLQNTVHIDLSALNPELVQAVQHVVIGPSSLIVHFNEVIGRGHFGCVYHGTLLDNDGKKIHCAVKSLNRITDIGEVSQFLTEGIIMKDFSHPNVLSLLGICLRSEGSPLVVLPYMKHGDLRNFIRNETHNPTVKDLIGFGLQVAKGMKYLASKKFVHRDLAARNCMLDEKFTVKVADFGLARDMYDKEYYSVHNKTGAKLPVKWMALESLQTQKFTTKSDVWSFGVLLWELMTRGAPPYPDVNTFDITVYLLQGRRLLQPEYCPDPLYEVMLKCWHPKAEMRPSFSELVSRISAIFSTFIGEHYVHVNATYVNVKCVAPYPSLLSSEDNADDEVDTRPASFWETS
Sequence of panel of human kinases (kinase named in endpoint) (Homo sapiens, UniProt Q86Y07) (Q86Y07 whole entry): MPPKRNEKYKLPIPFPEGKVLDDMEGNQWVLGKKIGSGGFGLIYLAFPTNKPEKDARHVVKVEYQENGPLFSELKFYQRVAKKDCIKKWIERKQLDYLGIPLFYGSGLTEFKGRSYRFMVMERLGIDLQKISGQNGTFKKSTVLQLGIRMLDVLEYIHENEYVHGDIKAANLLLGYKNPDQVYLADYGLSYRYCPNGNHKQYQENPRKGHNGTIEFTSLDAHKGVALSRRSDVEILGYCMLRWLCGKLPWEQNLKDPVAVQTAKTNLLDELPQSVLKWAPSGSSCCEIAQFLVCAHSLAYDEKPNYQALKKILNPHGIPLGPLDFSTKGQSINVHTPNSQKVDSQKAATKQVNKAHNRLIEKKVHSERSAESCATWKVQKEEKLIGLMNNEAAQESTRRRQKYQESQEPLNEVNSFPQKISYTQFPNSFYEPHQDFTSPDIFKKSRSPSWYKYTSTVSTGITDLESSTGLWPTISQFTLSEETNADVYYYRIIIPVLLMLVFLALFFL
Sequence of panel of human kinases (kinase named in endpoint) (Homo sapiens, UniProt Q9Y2H1) (Q9Y2H1 whole entry): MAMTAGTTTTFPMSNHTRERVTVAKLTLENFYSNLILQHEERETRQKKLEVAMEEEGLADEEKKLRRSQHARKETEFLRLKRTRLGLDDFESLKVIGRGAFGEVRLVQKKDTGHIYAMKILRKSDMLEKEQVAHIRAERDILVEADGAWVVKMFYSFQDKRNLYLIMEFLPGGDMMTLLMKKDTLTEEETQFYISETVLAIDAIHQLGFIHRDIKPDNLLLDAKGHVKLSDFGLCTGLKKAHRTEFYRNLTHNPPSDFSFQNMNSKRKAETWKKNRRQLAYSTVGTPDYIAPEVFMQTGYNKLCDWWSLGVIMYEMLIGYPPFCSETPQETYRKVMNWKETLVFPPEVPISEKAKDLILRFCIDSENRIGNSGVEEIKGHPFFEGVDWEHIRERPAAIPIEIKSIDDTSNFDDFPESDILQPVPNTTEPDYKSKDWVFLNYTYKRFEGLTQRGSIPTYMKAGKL

**Q.** Which activity at 10 µM [1] does the source give for CC(C)C(=O)Nc1nc2cc(-c3ccc4c(c3)c(C(=O)NC(C)c3ccccc3)cn4C)ccn2n1 (centres unmarked) [RI-962] here?
**A.** Its activity at 10 µM is 52%.

**Q.** And the activity at 10 µM [2]?
**A.** The activity at 10 µM was 112%.

**Q.** What about the activity at 10 µM [3] of the same compound?
**A.** Its activity at 10 µM is 105%.

**Q.** What about the activity at 10 µM [4] of the same compound?
**A.** The activity at 10 µM was 92%.

**Q.** And the activity at 10 µM ([5]; read-out: Activity (%), CK2(h))?
**A.** The activity at 10 µM was 91%.

**Q.** And the activity at 10 µM ([5]; read-out: Activity (%), CK2α1(h))?
**A.** The activity at 10 µM was 94%.

**Q.** And the activity at 10 µM [6]?
**A.** Its activity at 10 µM is 111%.

**Q.** And the activity at 10 µM [7]?
**A.** The activity at 10 µM was 96%.

**Q.** What about the activity at 10 µM [8] of the same compound?
**A.** The activity at 10 µM was 103%.

**Q.** What about the activity at 10 µM [9] of the same compound?
**A.** Its activity at 10 µM is 88%.

**Q.** And the activity at 10 µM [10]?
**A.** Its activity at 10 µM is 106%.

**Q.** What about the activity at 10 µM [11] of the same compound?
**A.** The activity at 10 µM was 88%.

**Q.** And the activity at 10 µM [12]?
**A.** The activity at 10 µM was 83%.

**Q.** What about the activity at 10 µM [13] of the same compound?
**A.** Its activity at 10 µM is 101%.

**Q.** And the activity at 10 µM [14]?
**A.** Its activity at 10 µM is 93%.

**Q.** What about the activity at 10 µM [15] of the same compound?
**A.** Its activity at 10 µM is 103%.

**Q.** What about the activity at 10 µM [16] of the same compound?
**A.** The activity at 10 µM was 102%.

**Q.** And the activity at 10 µM [17]?
**A.** Its activity at 10 µM is 94%.

**Q.** What about the activity at 10 µM [18] of the same compound?
**A.** The activity at 10 µM was 115%.

**Q.** What about the activity at 10 µM [19] of the same compound?
**A.** The activity at 10 µM was 97%.

**Q.** And the activity at 10 µM [20]?
**A.** Its activity at 10 µM is 102%.

**Q.** What about the activity at 10 µM [21] of the same compound?
**A.** Its activity at 10 µM is 89%.

**Q.** What about the activity at 10 µM [22] of the same compound?
**A.** The activity at 10 µM was 85%.

**Q.** And the activity at 10 µM [23]?
**A.** Its activity at 10 µM is 132%.

**Q.** And the activity at 10 µM [24]?
**A.** The activity at 10 µM was 104%.

**Q.** What about the activity at 10 µM [25] of the same compound?
**A.** Its activity at 10 µM is 92%.
